These results are taken from patent US10174288B2, “Induced pluripotent stem cell model for cardiofaciocutaneous syndrome and uses thereof” (Korea Advanced Institute of Science and Technology, priority 2013, dated 2019).

The structures appear in SMILES notation.

Assay type in all cases: cell-based, human
The test system of one assay is p-ERK. As to the kind of experiment: Western blotting of p-ERK in CFC-embryonic body differentiated with inhibitor. To be noted: 5 μM U0126, 100 nM LDN193189 during embryonic body differentiation; compared with untreated CFC-embryonic body; FIG. 7. How it is done: (§1) Particularly, the colony of CFC-iPS induced by the same manner as described in Example <2-1> was cut into 4 pieces by using […] tissue chopper. The CFC-iPS fragments were distributed in the ultra-low attachment dish, followed by re-suspension in 5 ml of the embryonic body differentiation medium, which was DMED/F12 supplemented with 10% serum replacement (SR). After 4 days of suspension culture, the differentiation of a CFC-iPS-derived embryonic body (CFC-embryonic body) was induced. On day 2 and day 4 from the inducement, the CFC-embryonic body was obtained and the cell morphology was observed under phase contrast microscope. WT-iPS was cultured as the normal control by the same manner as described above, so that the differentiation of a WT-iPS-derived embryonic body (WT-embryonic body) was induced. […] The concentration of the protein was measured by brad-ford assay. […] The expression levels of SMAD1, p-SMAD1, ERK1, p-ERK1, ERK2, and p-ERK2 were quantified by using Image J, the program for the measurement of the pixel intensity, by which the band intensity turned into numerical value. The relative values of p-SMAD1/SMAD1, p-ERK1/ERK1, and p-ERK2/ERK2 were calculated and then the phosphorylation levels of SMAD1, ERK1, and ERK2 were compared with those of the normal control. […]

The test system of the next assay is p-SMAD1. Put plainly: Western blotting of p-SMAD1 in CFC-embryonic body differentiated with inhibitor. To be noted: 5 μM U0126, 100 nM LDN193189 during embryonic body differentiation; compared with untreated CFC-embryonic body; FIG. 7. The method, then:
as §1
Background: Immunoblotting shows a protein as a band on a membrane.

The subject of another assay is CFC-embryonic body. Put plainly: Embryonic body shape under phase contrast microscope. To be noted: inhibitor present during CFC-embryonic body differentiation (LDN193189 100 nM, 4 days); compared with untreated CFC-embryonic body; FIG. 8. How it is done:
The CFC-iPS fragments were distributed in the ultra-low attachment dish, followed by re-suspension in 5 ml of the embryonic body differentiation medium, which was DMED/F12 supplemented with 10% serum replacement (SR). After 4 days of suspension culture, the differentiation of a CFC-iPS-derived embryonic body (CFC-embryonic body) was induced. On day 2 and day 4 from the inducement, the CFC-embryonic body was obtained and the cell morphology was observed under phase contrast microscope. WT-iPS was cultured as the normal control by the same manner as described above, so that the differentiation of a WT-iPS-derived embryonic body (WT-embryonic body) was induced. […] 4 days after the inducement started, the CFC-embryonic body was obtained and observed under phase contrast microscope to investigate the embryonic body shape. As for the normal control, WT-iPS was cultured by the same manner as described above to induce the differentiation of a WT-iPS derived embryonic body (WT-embryonic body).

As to `N#CC(=C(N)Sc1ccccc1N)C(C#N)=C(N)Sc1ccccc1N` [U0126, 1,4-diamino-2,3-dicyano-1,4-bis(2-aminophenylthio)butadiene], the “level of p-ERK in CFC-embryonic body” value with p-ERK is reported as “down regulation”. Besides, the “level of p-SMAD1 in CFC-embryonic body” value in the assay on p-SMAD1 is “reduced”. In the assay with CFC-embryonic body, the embryonic body shape entry is recorded as “normal unbroken embryonic body shape”.
